This test has as its target human PAD4 (hPAD4) (Homo sapiens, UniProt Q9UM07). The experiment in a line: RFMS human PAD4 functional assay (rapid-fire mass spectrum). To be noted: 5 nM hPAD4 enzyme, 250 μM BAEE, 50 μM Calcium; 30 min preincubation, 90 min reaction at 37° C. It counts as biochemical. Summed up: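 PAD4 (10 nM) preincubated 30 min with compound (top final 50 μM), then BAEE substrate added in pH 7.5 HEPES buffer with DTT, 50 μM calcium, TPEN; 90 min at 37° C. After TCA quench, citrulline derivatized with phenyl glyoxal (4 mM final, 30 min, 37° C) and quantified by RapidFire MS against internal standard.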

SMILES strings stand for the structures.

human PAD4 (hPAD4), sequence (Q9UM07 whole entry): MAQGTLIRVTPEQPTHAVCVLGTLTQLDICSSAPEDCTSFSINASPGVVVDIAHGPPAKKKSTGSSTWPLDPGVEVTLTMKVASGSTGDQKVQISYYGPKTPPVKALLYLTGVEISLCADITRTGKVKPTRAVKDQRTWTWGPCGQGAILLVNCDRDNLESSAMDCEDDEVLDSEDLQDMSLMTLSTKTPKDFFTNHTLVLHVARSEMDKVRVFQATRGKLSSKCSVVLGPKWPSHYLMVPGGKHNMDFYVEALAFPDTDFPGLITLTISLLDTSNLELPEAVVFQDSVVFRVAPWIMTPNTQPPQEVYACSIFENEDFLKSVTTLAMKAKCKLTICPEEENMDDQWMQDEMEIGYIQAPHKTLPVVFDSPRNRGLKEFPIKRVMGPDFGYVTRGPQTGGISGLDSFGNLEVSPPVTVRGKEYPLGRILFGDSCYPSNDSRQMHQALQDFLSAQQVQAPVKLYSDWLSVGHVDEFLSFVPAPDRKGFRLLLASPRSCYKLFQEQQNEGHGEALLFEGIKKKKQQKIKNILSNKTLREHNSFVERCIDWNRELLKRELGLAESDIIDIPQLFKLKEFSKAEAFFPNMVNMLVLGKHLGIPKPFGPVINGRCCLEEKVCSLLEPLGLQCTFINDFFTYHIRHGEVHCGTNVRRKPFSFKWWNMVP

Consider `COc1cc(C(=O)N2CC3CCC2[C@@H]3N)cc2nc(-c3cc4cccnc4n3CC3CC3)n(Cc3ccn(C)n3)c12` (stereo partly drawn) [Example 499, (7R)-2-{2-[1-(cyclopropylmethyl)-1H-pyrrolo[2,3-b]pyridin-2-yl]-7-methoxy-1-[(1-methyl-1H-pyrazol-3-yl)methyl]-1H-1,3-benzodiazole-5-carbonyl}-2-azabicyclo[2.2.1]heptan-7-amine], for which the IC50 (commonly the midpoint of a concentration-inhibition curve) came out at 125 nM.

In the case of `COc1cc(C(=O)N2C[C@H](N)C[C@@H](F)C2)cc2nc(-c3cc4cccnc4n3CC3CC3)n(CC3CN(C(=O)c4ccccc4)C3)c12` [Example 452, (3R,5R)-1-{[(1-benzoylazetidin-3-yl)methyl]-2-[1-(cyclopropylmethyl)-1H-pyrrolo[2,3-b]pyridin-2-yl]-7-methoxy-1H-1,3-benzodiazole-5-carbonyl}-5-fluoropiperidin-3-amine], the IC50 came to 48 nM.

Take `COc1cc(C(=O)N2CC3CCC2[C@@H]3N)cc2nc(-c3cc4ccccc4n3CC3CC3)n(CC3(F)CN(C(=O)c4ccccc4)C3)c12` (stereo partly drawn) [Example 432, (7R)-2-{1-[(1-benzoyl-3-fluoroazetidin-3-yl)methyl]-2-[1-(cyclopropylmethyl)-1H-indol-2-yl]-7-methoxy-1H-1,3-benzodiazole-5-carbonyl}-2-azabicyclo[2.2.1]heptan-7-amine]: the concentration for half-maximal inhibition (IC50) was 31 nM.

As to `COc1cncc(-n2cc(Cn3c(-c4cc5ccccc5n4CC4CC4)nc4cc(C(=O)N5CC6CCC5[C@@H]6N)cc(OC)c43)cn2)c1` (stereo partly drawn) [Example 349, (7R)-2-{2-[1-(cyclopropylmethyl)-1H-indol-2-yl]-7-methoxy-1-{[1-(5-methoxypyridin-3-yl)-1H-pyrazol-4-yl]methyl}-1H-1,3-benzodiazole-5-carbonyl)-2-azabicyclo[2.2.1]heptan-7-amine], the IC50 came out at 15 nM.

Turning to `N[C@@H]1[C@@H]2CC[C@H]1N(C(=O)c1cc(Cl)c3c(c1)nc(-c1cc4ccccc4n1CC1CC1)n3CC1CN(C(=O)c3ccncc3)C1)C2` [Example 93, (3-((5-((1R,4R,7R)-7-amino-2-azabicyclo[2.2.1]heptane-2-carbonyl)-7-chloro-2-(1-(cyclopropylmethyl)-1H-indol-2-yl)-1H-benzo[d]imidazol-1-yl)methyl)azetidin-1-yl)(pyridin-4-yl)methanone], the half-inhibitory concentration (IC50) was 16 nM.

For the compound `COc1cc(C(=O)N2CC3CCC2[C@@H]3N)cc2nc(-c3cc4cccnc4n3CC3CC3)n(CC3CN(C(=O)[C@H]4C[C@@H]4C)C3)c12` (stereo partly drawn) [Example 106, (1R,4R,7R)-2-{2-[1-(cyclopropylmethyl)-1H-pyrrolo[2,3-b]pyridin-2-yl]-7-methoxy-1-({1-[(1S,2S)-2-methylcyclopropanecarbonyl]aze-tidin-3-yl}methyl)-1H-1,3-benzodiazole-5-carbonyl}-2-azabicyclo[2.2.1]heptan-7-amine], the IC50 was 32 nM.

Turning to `COc1cc(C(=O)N2C[C@H]3CC[C@@H]2[C@@H]3N)cc2nc(-c3cc4cccnc4n3CC3CC3)n(CC3CN(c4cc(C#N)cnc4C#N)C3)c12` [Example 12, 3-[3-({5-[(1R,4R,7R)-7-amino-2-azabicyclo[2.2.1]heptane-2-carbonyl]-2-[1-(cyclopropylmethyl)-1H-pyrrolo[2,3-b]pyridin-2-yl]-7-methoxy-1H-1,3-benzodiazol-1-yl}methyl)azetidin-1-yl]pyridine-2,5-dicarbonitrile], the IC50 was found to be 38 nM.

In the case of `COc1cc(C(=O)N2C[C@H]3CC[C@@H]2[C@@H]3N)cc2nc(-c3cc4ccccc4n3CC3CC3)n(Cc3cn[nH]c3)c12` [Example 247, (1-((1H-pyrazol-4-yl)methyl)-2-(1-(cyclopropylmethyl)-1H-indol-2-yl)-7-methoxy-1H-benzo[d]imidazol-5-yl)((1R,4R,7R)-7-amino-2-azabicyclo[2.2.1]heptan-2-yl)methanone], the IC50 was found to be 27 nM.

On to `COc1cc(C(=O)N2CCC[C@@H](N)C2)cc2nc(-c3cc4cccnc4n3CC3CC3)n(CCNS(C)(=O)=O)c12` [Example 292, N-(2-{5-[(3R)-3-aminopiperidine-1-carbonyl]-2-[1-(cyclopropylmethyl)-1H-pyrrolo[2,3-b]pyridin-2-yl]-7-methoxy-1H-1,3-benzodiazol-1-yl}ethyl)methanesulfonamide], for which the half-inhibitory concentration (IC50) worked out at 2060 nM.

Regarding `COc1cc(C(=O)N2C[C@H]3CC[C@@H]2[C@@H]3N)cc2nc(-c3cc4ccccc4n3CC3CC3)n(Cc3cccnc3)c12` [Example 246, (1R,4R,7R)-2-{2-[1-(cyclopropylmethyl)-1H-indol-2-yl]-7-methoxy-1-[(pyridin-3-yl)methyl]-1H-1,3-benzodiazole-5-carbonyl}-2-azabicyclo[2.2.1]heptan-7-amine], the 50% inhibitory concentration (IC50) was determined as 25 nM.

Turning to `COc1cc(C(=O)N2CC3CCC2[C@@H]3N)cc2nc(-c3cc4cccnc4n3CC3CC3)n(CC3CCN(C(=O)c4ccnc(C#N)c4)CC3)c12` (stereo partly drawn) [Example 200, 4-[4-({5-[(1R,4R,7R)-7-amino-2-azabicyclo[2.2.1]heptane-2-(cyclopropylmethyl)-1H-pyrrolo[2,3-b]pyridin-2-yl]-7-methoxy-1H-1,3-benzodiazol-1-yl}methyl)piperidine-1-carbonyl]pyridine-2-carbonitrile], the IC50 is 198 nM.

On to `COc1cc(C(=O)N2C[C@H]3CC[C@@H]2[C@@H]3N)cc2nc(-c3cc4cccnc4n3CC3CC3)n(C3CN(c4cnc(C#N)nc4)C3)c12` [Example 82, 5-(3-{5-[(1R,4R,7R)-7-amino-2-azabicyclo[2.2.1]heptane-2-carbonyl]-2-[1-(cyclopropylmethyl)-1H-pyrrolo[2,3-b]pyridin-2-yl]-7-methoxy-1H-1,3-benzodiazol-1-yl}azetidin-1-yl)pyrimidine-2-carbonitrile], for which the concentration for half-maximal inhibition (IC50) stood at 424 nM.

Regarding `COc1cc(C(=O)N2CC3CCC2[C@@H]3N)cc2nc(-c3cc4ccccc4n3CC3CC3)n(Cc3cnn(-c4cnc(O)c(F)c4)c3)c12` (stereo partly drawn) [Example 357, 5-[4-({5-[(7R)-7-amino-2-azabicyclo[2.2.1]heptane-2-carbonyl]-2-[1-(cyclopropylmethyl)-1H-indol-2-yl]-7-methoxy-1H-1,3-benzodiazol-1-yl}methyl)-1H-pyrazol-1-yl]-3-fluoropyridin-2-ol], the concentration for half-maximal inhibition (IC50) was determined as 23 nM.

`COc1cc(C(=O)N2C[C@H]3CC[C@@H]2[C@@H]3N)cc2nc(-c3cc4cccnc4n3CC3CC3)n(CC3CN(S(=O)(=O)C(C)C)C3)c12` [Example 335, (1R,4R,7R)-2-{2-[1-(cyclopropylmethyl)-1H-pyrrolo[2,3-b]pyridin-2-yl]-7-methoxy-1-{[1-(propane-2-sulfonyl)azetidin-3-yl)methyl}-1H-1,3-benzodiazole-5-carbonyl}-2-azabicyclo[2.2.1]heptan-7-amine]: the concentration for half-maximal inhibition (IC50) was 245 nM.

On to `COc1cc(C(=O)N2C[C@H]3CC[C@@H]2[C@@H]3N)cc2nc(-c3cc4ccccc4n3CC3CC3)n(C[C@H]3CCN(c4cncc(C#N)n4)C3)c12` [Example 196, 6-[(3S)-3-({5-[(1R,4R,7R)-7-amino-2-azabicyclo[2.2.1]heptane-2-carbonyl]-2-[1-(cyclopropylmethyl)-1H-indol-2-yl]-7-methoxy-1H-1,3-benzodiazol-1-yl}methyl)pyrrolidin-1-yl]pyrazine-2-carbonitrile], for which the half-maximal inhibitory concentration (IC50) is 16 nM.

For `COc1cc(C(=O)N2CC3CCC2[C@@H]3N)cc2nc(-c3cc4cccnc4n3CC3CC3)n(CC3CCN(c4ccnc(C#N)n4)CC3)c12` (stereo partly drawn) [Example 218, 4-[4-({5-[(1R,4R.,7R)-7-amino-2-azabicyclo[2.2.1]heptane020 carbonyl]-2-[1-(cyclopropylmethyl)-1H-pyrrolo[2,3-b]pyridin-2-yl]-7-methoxy-1H-1,3-benzodiazol-1-yl}methyl)piperidin-1-yl]pyrimidin-2-carbonitrile], the IC50 came to 87 nM.

On to `COc1cc(C(=O)N2C[C@H]3CC[C@@H]2[C@@H]3N)cc2nc(-c3cc4ccccc4n3CC3CC3)n(CC3CCC(=O)N3)c12` (stereo partly drawn) [Example 275, 5-({5-[(1R,4R,7R)-7-amino-2-azabicyclo[2.2.1]heptane-2-carbonyl]-2-[1-(cyclopropylmethyl)-1H-indol-2-yl]-7-methoxy-1H-1,3-benzodiazol-1-yl}methyl)pyrrolidin-2-one], for which the IC50 is 298 nM.

For the compound `COc1cc(C(=O)N2C[C@H]3CC[C@@H]2[C@@H]3N)cc2nc(-c3cc4ccccc4n3CC3CC3)n(CC3CN(C(=O)c4ccc(C#N)cc4)C3)c12` [Example 91, 4-[3-({5-[(1R,4R,7R)-7-amino-2-azabicyclo[2.2.1]heptane-2-carbonyl]-2-[1-(cyclopropylmethyl)-1H-indol-2-yl]-7-methoxy-1H-1,3-benzodiazol-1-yl}methyl)azetidine-1-carbonyl]benzonitrile], the IC50 came out at 9 nM.

Turning to `Cn1cc(Cn2c(-c3cc4cccnc4n3CC3CC3)nc3cc(C(=O)N4CC5CCC4[C@@H]5N)cc(F)c32)cn1` (stereo partly drawn) [Example 491, (7R)-2-{2-[1-(cyclopropylmethyl)-1H-pyrrolo[2,3-b]pyridin-2-yl]-7-fluoro-1-[(1-methyl-1H-pyrazol-4-yl)methyl]-1H-1,3-benzodiazole-5-carbonyl}-2-azabicyclo[2.2.1]heptan-7-amine], the IC50 amounted to 57 nM.

Regarding `COc1cc(C(=O)N2CC3CCC2[C@@H]3N)cc2nc(-c3cc4cccnc4n3CC3CC3)n([C@H]3C[C@H](NS(C)(=O)=O)C3)c12` (stereo partly drawn) [Example 298, N-[(1r,3r)-3-{5-[(1R,4R,7R)-7-amino-2-azabicyclo[2.2.1]heptane-2-carbonyl]-2-[1-(cyclopropylmethyl)-1H-pyrrolo[2,3-b]pyridin-2-yl]-7-methoxy-1H-1,3-benzodiazol-1-yl}cyclobutyl]methanesulfonamide], the concentration for half-maximal inhibition (IC50) was found to be 331 nM.

Regarding `COc1cc(C(=O)N2CC3CCC2[C@@H]3N)cc2nc(-c3cc4cccnc4n3CC3CC3)n(Cc3cnn(-c4cnccn4)c3)c12` (stereo partly drawn) [Example 373, (7R)-2-{2-[1-(cyclopropylmethyl)-1H-pyrrolo[2,3-b]pyridin-2-yl]-7-methoxy-1-{[1-(pyrazin-2-yl)-1H-pyrazol-4-yl]methyl}-1H-1,3-benzodiazole-5-carbonyl}-2-azabicyclo[2.2.1]heptan-7-amine], the 50% inhibitory concentration (IC50) stood at 34 nM.
